We go through 1 compound from patent publication EP0733369A1, “Protease inhibitors, a DNA construct for the expression of a protease and a process for measuring proteases and/or protease inhibitors” (Stichting REGA V.Z.W., priority 1995, dated 1996).

Usually IC50 stands for the concentration that gives 50% inhibition. A higher IC50 goes with a need for much substance.

“Also recorded” adds a separate entry of the source.

For assay [1], the target named is T1, Gelatinase B (Homo sapiens, UniProt P14780). The assay is described as follows: zymography of cerebrospinal fluid of MS / optic neuritis patients with inhibitor. It counts as biochemical. Also on record: from tissue; host or cells: cerebrospinal fluid of patients with multiple sclerosis or optic neuritis. To be noted: CSF of MS patients, increasing concentrations. On the procedure: (§1) Quantitative zymography was performed as described (7,8). Briefly, 40 µl of loading buffer was added to 40 µl of each sample and applied on 7.5% polyacrylamide gels which had been co-polymerised with 0.1% (w/v) gelatin. Stacking gels contained 5% polyacrylamide. The gels were run at 4°C for 16h at 90V. The gels were then incubated in washing buffer (50 mM Tris-HCl pH 7.5, 10mM CaCl2, O.O2% (W/V) NaN3, 2.5% (v/v) Triton X-100) at room temperature, 2x20 min to remove sodium dodecyl sulfate and overnight in developing buffer (50 mM Tris-HCl pH 7.5, 10mM CaCl2, O.O2% (w/v) NaN3, 1% (v/v) Triton X-100) at 37°C. […] The sites of gelatinase activity appeared as unstained bands on a blue background and were quantified by computerised image analysis through scanning densitometry with a PDI scanner (Pharmacia, Belgium) and the PDI software package. […]
(§2) Similar results were obtained when pure preparations of gelatinase B were tested or when gelatinase B was measured in the presence of D-penicillamine in body fluids or cell supernatants.
(§3) Figure 13. […] Gelatinase A (---) and B(_) activities in the CSF were measured by zymography in the absence or the presence of increasing concentrations of D-penicillamine. The scanning indices for each patient are calculated at the residual activity in the presence of inhibitor versus the activity without inhibitor. […]
Target sequence in this assay (P14780 94-707): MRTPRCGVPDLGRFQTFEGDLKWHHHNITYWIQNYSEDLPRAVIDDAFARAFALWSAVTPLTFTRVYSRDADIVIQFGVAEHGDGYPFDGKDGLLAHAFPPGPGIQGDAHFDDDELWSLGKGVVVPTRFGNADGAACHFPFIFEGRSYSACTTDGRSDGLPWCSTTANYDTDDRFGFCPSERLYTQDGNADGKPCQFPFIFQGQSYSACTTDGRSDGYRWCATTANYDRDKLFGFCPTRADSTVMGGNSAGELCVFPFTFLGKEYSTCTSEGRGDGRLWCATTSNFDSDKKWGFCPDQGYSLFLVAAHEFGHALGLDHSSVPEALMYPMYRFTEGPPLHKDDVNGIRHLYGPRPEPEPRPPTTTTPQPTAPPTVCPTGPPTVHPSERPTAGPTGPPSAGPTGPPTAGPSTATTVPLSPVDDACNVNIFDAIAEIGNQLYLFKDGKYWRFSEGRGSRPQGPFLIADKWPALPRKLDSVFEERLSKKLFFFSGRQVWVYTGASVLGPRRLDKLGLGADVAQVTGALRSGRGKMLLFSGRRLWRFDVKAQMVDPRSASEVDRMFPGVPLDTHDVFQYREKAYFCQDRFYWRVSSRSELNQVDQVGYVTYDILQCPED

The target in another assay is u-PA (Homo sapiens, UniProt P00749). The assay is described as follows: ID50 on homogeneous enzyme. The class given is biochemical.
In the next assay the test system is chronic relapsing EAE. Kind of assay: chronic relapsing EAE in Biozzi AB/H mice. The class given is in vivo. To be noted: 750 µg three times weekly from day 22 onwards.
The next assay deals with T2, Gelatinase A (Homo sapiens, UniProt P08253).
T2 construct: from tissue; host or cells: cerebrospinal fluid of patients with multiple sclerosis or optic neuritis
T2 sequence (P08253 110-660): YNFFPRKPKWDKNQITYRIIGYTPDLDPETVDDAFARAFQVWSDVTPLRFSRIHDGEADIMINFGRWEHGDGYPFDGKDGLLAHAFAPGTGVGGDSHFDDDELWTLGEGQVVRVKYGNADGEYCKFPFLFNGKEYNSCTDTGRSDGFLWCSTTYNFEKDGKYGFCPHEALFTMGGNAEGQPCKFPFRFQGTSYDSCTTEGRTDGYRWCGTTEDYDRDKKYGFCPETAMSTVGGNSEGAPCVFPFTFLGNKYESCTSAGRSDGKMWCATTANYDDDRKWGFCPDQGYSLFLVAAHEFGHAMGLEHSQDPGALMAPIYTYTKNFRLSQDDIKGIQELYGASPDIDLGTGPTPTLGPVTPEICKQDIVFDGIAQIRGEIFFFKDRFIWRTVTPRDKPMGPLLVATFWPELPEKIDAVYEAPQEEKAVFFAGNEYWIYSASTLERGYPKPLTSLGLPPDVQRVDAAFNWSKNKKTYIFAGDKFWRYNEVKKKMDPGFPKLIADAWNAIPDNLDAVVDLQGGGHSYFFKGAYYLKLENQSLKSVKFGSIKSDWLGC
Kind of assay: zymography of cerebrospinal fluid of MS / optic neuritis patients with inhibitor. To be noted: CSF of MS patients, increasing concentrations. It counts as biochemical. On the procedure: as §1, §2, §3

The target of assay [2] is T3, gelatinase B from neutrophils (Homo sapiens, UniProt P14780). Kind of assay: gelatinase (inhibitor) microtiter plate assay with biotinylated gelatin. It counts as biochemical. To be noted: qualitative statements. More on the design: endogenous in cells; host or cells: human neutrophils stimulated with lipopolysaccharide; conditioned medium. On the procedure:
The measurement of gelatinase activity was based on the detection of non-degraded biotinylated gelatin with a streptavidin-peroxidase conjugate. This test is based on the biotin-avidin method described by Sorbi et al. (25) but modified to a one plate assay (schematically represented in Fig. 1.). Gelatin (1mg/ml) was dissolved in 0.1 M sodium bicarbonate pH 8.3 by heating to 40°C. Biotin-N-hydroxysuccinimide ester was dissolved in dimethylsulfoxide (Me2SO) and was added to the gelatin in a 15-fold molar excess. The mixture was allowed to react overnight at 4°C and the biotinylated gelatin was then dialyzed against phosphate buffered saline (PBS). Neutrophil granulocyte (Neu) medium was collected from human neutrophils after stimulation with lipopolysaccharide (1µg/ml) overnight at 37°C in Minimal Essential Medium. Cells were removed by 10 min centrifugation at 1000 g. Purified gelatinase was obtained by one-step affinity chromatography of neutrophil medium on a gelatin-sepharose column as described (8).
Modified flat bottom 96-well ELISA plates were coated overnight with 0.5 µg/ml avidin in distilled water. The plates were then blocked with 0.3% bovine serum albumin (BSA, Sigma) in PBS for 1 hour at 37°C. Biotinylated gelatin was diluted to 50 µg/ml and 100µl was added to the avidin-coated wells. After incubation for one hour at 20°C, the plate was rinsed with PBS. Medium containing the secreted gelatinases from human neutrophils (dilution range 1/3-1/3^11) and the inhibitors were diluted in incubation buffer (50 mM Tris-HCl pH 7.5, 10 mM CaCl2, 0.02% (W/V) NaN3, 1% (V/V) Triton X-100) and 100 µl of each were mixed. 190 µl of the mixture was added to the gelatin-coated plates and allowed to digest the gelatin overnight at 37°C. The plates were then washed with PBS and each well was incubated with 100 µl peroxidase-conjugated-streptavidin at a 1:2000 dilution for 1 hour at 37°C. After rinsing the plate, the ABTS substrate was added (0.5 mg/ml solution containing 0.1 M citric acid, 0.2 M Na2HPO4, pH 4.3, 0.07 µl/ml 30% H2O2) and the optical density was read at 405 nm after 10 min. incubation at room temperature. Additional information on published test systems used here for comparison.
Gelatin is biotinylated and bound to avidin-coated microtiter plates. By addition of gelatinases the number of free biotin groups decreases and proportionally less streptavidin-peroxidase is bound to the residual substrate. Bound streptavidin-peroxidase activity is measured spectrophotometrically by reaction of peroxide with ABTS. Inhibition of gelatinase is obtained by the addition of inhibitor to a known amount of gelatinase prior to application to the plates. The peroxidase activity increases proportionally with the inhibitory activity.
Plates were first coated with 10µg/ml avidin and 50µg/ml biotinylated gelatin (theoretically saturating the avidin binding sites). As the sensitivity of the assay is dependent on the detection of the minimal amount of degraded biotinylated gelatin, we investigated wether decreasing the amount of biotin-gelatin (50 µg/ml-23 ng/ml) bound to the avidin-coated (10µg/ml) plate increased the sensitivity of the assay. […] Thus it was verified whether a decrease in the avidin coating could make the assay more sensitive (Fig. 2). […] In all further examples plates were coated with 0.5 µg/ml avidin and 50 µg/ml gelatin-biotin.
The titration curves of gelatinase inhibition were always related to a blanc curve and this for enzyme concentrations within the slope of the curve (vertical dotted lines Fig. 3). The decrease in enzyme activity to which the inhibitor-incubated sample corresponded was defined as the inhibition factor (IF).

Assay [3] deals with T1, Gelatinase B. The assay is described as follows: ID50 on homogeneous enzyme. The class given is biochemical.
Target sequence in this assay (P14780 107-707): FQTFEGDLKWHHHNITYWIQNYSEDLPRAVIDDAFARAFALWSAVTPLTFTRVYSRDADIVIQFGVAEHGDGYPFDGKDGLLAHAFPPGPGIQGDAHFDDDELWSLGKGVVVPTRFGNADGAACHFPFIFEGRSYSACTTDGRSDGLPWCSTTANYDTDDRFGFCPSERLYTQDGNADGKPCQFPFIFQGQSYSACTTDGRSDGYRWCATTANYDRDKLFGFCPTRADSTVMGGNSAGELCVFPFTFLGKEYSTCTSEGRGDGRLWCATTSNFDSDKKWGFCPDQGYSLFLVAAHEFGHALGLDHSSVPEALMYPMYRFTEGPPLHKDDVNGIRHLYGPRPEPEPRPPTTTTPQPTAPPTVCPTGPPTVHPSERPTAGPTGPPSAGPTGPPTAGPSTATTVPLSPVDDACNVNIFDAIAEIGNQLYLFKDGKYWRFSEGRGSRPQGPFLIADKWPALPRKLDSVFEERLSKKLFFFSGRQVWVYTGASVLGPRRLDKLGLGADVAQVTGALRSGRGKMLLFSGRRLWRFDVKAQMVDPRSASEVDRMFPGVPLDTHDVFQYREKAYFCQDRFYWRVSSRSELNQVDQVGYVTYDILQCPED
In the next assay the target is t-PA (Homo sapiens, UniProt P00750). The assay is described as follows: ID50 on homogeneous enzyme. The class given is biochemical.
Assay [4] concerns human monocytic cell line THP-1. The assay is described as follows: gelatinase B protein (zymography) and mRNA (northern blot) production in THP-1 cultures. It counts as cell-based. To be noted: THP-1, LPS 1µg/ml, RA 100nM or untreated; D-penicillamine 50 µg/ml; 16 h. On the procedure:
Figure 14. […] Cultures of the human monocytic cell line THP-1 were stimulated with lipopolysaccharide (LPS, 1µg/ml), retinoic acid (RA, 100nM) or left untreated (CO) in the presence or absence of D-penicillamine (DPEN, 50 µg/ml). After 16 h total RNA was extracted and gelatinase B mRNA was measured by northern blot analysis with a human probe (41) (a). Gelatinase B protein in the cell culture fluids was assayed by zymographic analysis on gelatin substrate gels (b).

The target of assay [5] is T3, gelatinase B from neutrophils. The assay is described as follows: zymography inhibition assay, inhibitor in developing buffer. The class given is biochemical. More on the design: The 92 kDa neutrophil gelatinase is indicated with an arrowhead; endogenous in cells; host or cells: human neutrophils; purified from conditioned medium on gelatin-Sepharose. To be noted: qualitative statements.
Experimental: Quantitative zymography was performed as described (7,8). Briefly, 40 µl of loading buffer was added to 40 µl of each sample and applied on 7.5% polyacrylamide gels which had been co-polymerised with 0.1% (w/v) gelatin. Stacking gels contained 5% polyacrylamide. The gels were run at 4°C for 16h at 90V. The gels were then incubated in washing buffer (50 mM Tris-HCl pH 7.5, 10mM CaCl2, O.O2% (W/V) NaN3, 2.5% (v/v) Triton X-100) at room temperature, 2x20 min to remove sodium dodecyl sulfate and overnight in developing buffer (50 mM Tris-HCl pH 7.5, 10mM CaCl2, O.O2% (w/v) NaN3, 1% (v/v) Triton X-100) at 37°C. The gels were then stained in Coomassie brilliant blue R-250 and destained in methanol/acetic acid. The sites of gelatinase activity appeared as unstained bands on a blue background and were quantified by computerised image analysis through scanning densitometry with a PDI scanner (Pharmacia, Belgium) and the PDI software package. For inhibition experiments, the inhibitors were dissolved in the developing buffer at the appropriate concentration. […] The enzyme activity was developed by staining of the substrate with Coomassie blue and quantification of the substrate digestion by scanning densitometry. […] The enzyme activity was developed by staining of the substrate with Coomassie blue and quantification of the substrate digestion by scanning densitometry. […]

Assay [6] concerns hyperacute experimental allergic encephalomyelitis (EAE). The assay is described as follows: acute (hyperacute) EAE in SJL mice. To be noted: intraperitoneal, equivalent of 27 to 375 µg per mouse daily.
Experimental: In both hind paws 50µl of this emulsion was injected on day 0. On day 0 and 2, 50µl B.pertussis (200x10^9 bacteria/ml) were injected intraveneously. […] The control group received injections with 0.9% NaCl, used as excipiens. The animals were daily monitored and the disease and mortality were scored.).

T3 sequence (P14780 94-707): as the sequence (P14780 94-707) above
t-PA, sequence (P00750 36-562, species assumed): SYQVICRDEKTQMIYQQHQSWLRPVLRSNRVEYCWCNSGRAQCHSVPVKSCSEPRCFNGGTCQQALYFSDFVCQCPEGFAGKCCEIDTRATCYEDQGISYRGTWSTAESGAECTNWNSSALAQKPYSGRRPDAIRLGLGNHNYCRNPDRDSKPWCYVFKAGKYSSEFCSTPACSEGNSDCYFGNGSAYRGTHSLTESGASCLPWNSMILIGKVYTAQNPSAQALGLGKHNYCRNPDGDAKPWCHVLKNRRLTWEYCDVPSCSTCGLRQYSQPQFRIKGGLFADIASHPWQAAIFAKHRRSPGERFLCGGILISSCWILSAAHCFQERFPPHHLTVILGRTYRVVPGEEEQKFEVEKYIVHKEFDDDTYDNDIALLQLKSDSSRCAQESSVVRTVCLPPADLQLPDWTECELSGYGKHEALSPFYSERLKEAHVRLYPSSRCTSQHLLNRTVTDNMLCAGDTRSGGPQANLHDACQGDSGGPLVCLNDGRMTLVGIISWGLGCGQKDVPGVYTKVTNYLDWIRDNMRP

Regarding `CC(C)(S)[C@@H](N)C(=O)O` [D-penicillamine], the “inhibition of Gelatinase B in cerebrospinal fluid (in words)” value at Gelatinase B [1] is reported as “inhibited in a dose-dependent way”. Further, the results for the IC50 at u-PA, at Gelatinase B [3] and on t-PA were 93.8 µM, 20.1 µM and 121 µM, respectively. Moreover, in the assay with chronic relapsing EAE, the “disease recurrencies in chronic relapsing EAE” value is given as “abrogated the exacerbations; also recorded: abrogated the disease recurrencies”. Besides, the “inhibition of Gelatinase A in cerebrospinal fluid (in words)” value at Gelatinase A is “inhibited in a dose-dependent way”. Also, in assay [2], the “gelatinase B inhibitory activity in the plate assay (in words)” value was “inhibitor of gelatinase B”. Besides, the “spontaneous and induced levels of gelatinase B mRNA” value in assay [4] was “remained constant”. In addition, in assay [4], the “spontaneous and induced levels of gelatinase B protein” value is given as “remained constant”. Also, the “inhibition of gelatinase B on zymography (in words)” value in assay [5] is listed as “inhibitor of gelatinase B”. Further, in assay [6], the “development of disease symptoms in acute EAE” value is recorded as “complete blockage; also recorded: inhibits in a dose-dependent way the development of disease symptoms”.
